Assay results reported in publication PMC10373461, “Discovery of a Hidden Trypanosoma cruzi Spermidine Synthase Binding Site and Inhibitors through In Silico, In Vitro, and X-ray Crystallography” (ACS Omega, 2023).

How the values were obtained:
[1] = biological target: T1, Trypanosoma cruzi spermidine synthase (TcSpdSyn) (Trypanosoma cruzi, UniProt Q4DA73); assay: X-ray co-crystal structure; SSAT1-coupled enzyme inhibition assay (hydrochloride salt); assay type: biochemical
T1 construct: gene Tc00.1047053510339.50
T1 sequence (Q4DA73 1-296): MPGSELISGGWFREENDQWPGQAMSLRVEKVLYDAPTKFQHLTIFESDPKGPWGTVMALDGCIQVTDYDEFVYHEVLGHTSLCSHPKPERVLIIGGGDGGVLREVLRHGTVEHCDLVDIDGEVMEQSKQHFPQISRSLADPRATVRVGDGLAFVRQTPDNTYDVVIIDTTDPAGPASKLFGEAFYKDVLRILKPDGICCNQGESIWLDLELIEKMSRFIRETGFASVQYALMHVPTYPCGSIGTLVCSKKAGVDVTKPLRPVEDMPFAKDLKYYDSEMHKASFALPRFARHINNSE

[2] = biological target: T1, Trypanosoma cruzi spermidine synthase (TcSpdSyn); assay: X-ray co-crystal structure; SSAT1-coupled enzyme inhibition assay; assay type: biochemical

| Structure (SMILES) | IC50 [1] | IC50 [2] |
| --- | --- | --- |
| COc1ccc(Nc2ccnc3ccccc23)cc1 [compound 2] | 43.4 µM | – |
| COc1ccc(C2=N[C@H](C)CN2)c(O)c1 [compound 1] | – | 82.3 µM |
